Structures are written as SMILES.

Broadly, the melting point is the temperature, or range, at which the solid turns liquid. With `CC1=NN(C(=O)NS(=O)(=O)c2c(F)cccc2F)CC1`, the melting point came to 196 °C.

`CSc1nc(Cl)c(-c2c(F)cc(F)cc2F)c(N2CCCC(C)O2)n1` (configuration not stated) returned a melting point of 110 to 111 °C.

In the case of `CN1Cc2ccc(Cl)c3scc(c23)S1(=O)=O`, the melting point turned out to be 146 °C.

In turn, `COC(=O)c1cn(C)c2cc(OC)c(C(F)(F)F)cc12` displayed a melting point of 166 to 170 °C.

The compound `COc1cc(OC)c2cnnc(Cl)c2c1` registered a melting point of 167 °C.

In turn, `COc1c(O)c(OC)c2c(=O)cc(-c3ccc(O)cc3)oc2c1OC` yielded a melting point of 266 to 268 °C.

As for `COc1ccc2c(c1)C(CCNC(=O)c1ccc(Br)cc1)CC2` (configuration not stated), the melting point is 142 to 143 °C.

Compound `CC(=O)OCC1C(C(=O)O)C1(C)C` (configuration not stated) returned a melting point of 78 to 79 °C.

`NC(=O)c1ncn(Cc2ccc(Cl)c(C(F)(F)F)c2)c1N` gave a melting point of 230 to 232 °C.

The compound `N#Cc1ccc2cc(CCc3cc4ccc(C#N)cc4o3)oc2c1` returned a melting point of 266 to 267 °C.

`CN1CC(=O)Nc2ccc(Br)cc2C1=O` showed a melting point of 260 to 261 °C.

As for `Oc1ccc(C(c2ccc(O)cc2)n2cncn2)cc1`, the melting point is 230 °C.

The compound `C=C(C(=O)c1ccc(C(=O)O)cc1)c1cc(OC)c(OC)c(-c2cccs2)c1` registered a melting point of 156 to 157 °C.

As to `O=C(O)c1c[nH]c2c1C(=O)CCCC2`, the melting point was in the range of 225 to 227 °C.

For `CC(C)Nc1nc2cc(C#N)ccc2[nH]1`, the melting point was in the range of 185 to 190 °C.

Compound `Cc1nc2n(C)nc(C)n2c(=O)c1CCCl` registered a melting point of 140 °C.

`CN1C(=O)C(C(=O)NCCCCCC(=O)O)S(=O)(=O)c2ccccc21` (configuration not stated) returned a melting point of 132 to 134 °C.

`S=C(c1ccc(Br)cc1)N1CCOCC1`: the melting point was 135 to 137 °C.

Compound `CCOC(=O)c1cnc(Nc2cc(C)ccc2C)[nH]c1=O` returned a melting point of 252 to 254 °C.

The compound `C[C@@H](NC(=O)[C@@H](NCc1nccn1C)C(C)(C)C)C(C)(C)C` yielded a melting point of 131 to 132 °C.

`CC(C)C[C@H](NC(=O)OCCC1c2ccccc2-c2ccccc21)C(=O)O`: the melting point lay in the range of 42 to 43 °C.

As for `C#Cc1ccnc(-c2cc(N)c(C#C[Si](C)(C)C)cc2[N+](=O)[O-])c1`, the melting point is 145 to 150 °C.

Compound `CCCCc1nc(NC(=N)N)sc1-c1cccc([N+](=O)[O-])c1` gave a melting point of 140 to 142 °C.

In the case of `CNC(=O)[C@@H]1CCCCN1S(=O)(=O)c1ccc(Cl)c(COc2cccc3c(-n4ccnc4)cc(C)nc23)c1Cl`, the melting point is 74 °C.

For `O=C(c1ccccc1)c1ccc(-c2nc(CCl)co2)cc1`, the melting point lay in the range of 138 to 139 °C.

In turn, `Cc1[nH]c2ccc(F)cc2c1C(=O)Nc1ccc(N2CCC(O)CC2)c(C#N)c1` returned a melting point of 169 to 171 °C.

`Cc1ccc(C(=O)N2CCC(CCN3C(=O)CCc4c(CC5SC(=O)NC5=O)cccc43)CC2)cc1` (configuration not stated) gave a melting point of 60 to 65 °C.

As for `CCCN(CCC)S(=O)(=O)c1cc(-c2csc(=Nc3cccc(C)c3C)n2C)ccc1Cl`, the melting point fell in the range of 184 to 187 °C.

Consider `CC1(C)OC(=O)Nc2ccc(-c3cc(CC#N)ccc3F)cc21`, for which the melting point is 184 to 187 °C.

Turning to `O=C1C=Cc2ccccc2C1(Cc1ccncc1)Cc1ccncc1`, the melting point lay within 111 to 112 °C.

With `Cc1c(C)c2cc(CCN3CCN(c4n[nH]c5ccccc45)CC3)ccc2[nH]c1=O`, the melting point was 266 to 268 °C.

`COCc1ncnc(Cl)c1C`: the melting point is 37 to 38 °C.

In turn, `CS(=O)(=O)c1n[nH]c(NCCCCOc2cccc(CN3CCCCC3)c2)n1` showed a melting point of 79 to 81 °C.

The compound `CNC(=O)c1ccc2[nH]cc(C3=CCN(C)CC3)c2c1` had a melting point of 125 to 135 °C.

`COc1cccc2c(NCc3ccccc3C)nc(N)nc12` gave a melting point of 274 to 275 °C.

The compound `O=[N+]([O-])c1ccc(C=Cc2nccn2Cc2ccccn2)o1` gave a melting point of 141 to 142 °C.

In turn, `COc1cc2nc(SCc3nccc(N(C)C)c3F)[nH]c2cc1OC` returned a melting point of 142 to 144 °C.

`COc1cc(Nc2c(C#N)cnc3cc(-c4cnc(CN5CCN(C)CC5)n4C)sc23)c(Cl)cc1Cl` yielded a melting point of 234 to 235 °C.

`COc1nc2cccnc2n1-c1ccc(-c2nc(-c3nccs3)cn2-c2ccc(C)nc2)cc1` displayed a melting point of 190 to 192 °C.

`Oc1cc(-c2c(F)c(F)c(F)c(F)c2F)nn1-c1ccccc1` yielded a melting point of 149 to 151 °C.

On to `COC(=O)CS(=O)CCCCCn1nc(-c2ccccc2)c(-c2ccccc2)c1-c1ccccc1` (configuration not stated), for which the melting point lay within 108 to 109 °C.

`COCc1ccc(Oc2cc(OC)c3[nH]c(C4=NCC(CC(N)=O)S4)cc3c2)cn1` (configuration not stated): the melting point is 135 to 136 °C.

In turn, `NC1=NS(=O)N=C1NCCCOc1cccc2c(N3CCOCC3)nccc12` (configuration not stated) displayed a melting point of 222 to 224 °C.

`O=C(NS(=O)(=O)c1ccccc1C(=O)OC1COC1)Oc1ccccc1`: the melting point fell in the range of 91 to 92 °C.

For `O=C1Nc2cccc(-c3cccc(C(F)(F)F)c3)c2/C1=C/c1ccc[nH]1`, the melting point lay in the range of 197 to 198 °C.

In turn, `CCC(CC)n1cnc2c1c(=O)n(C)c(=O)n2-c1ccc(Cl)cc1Cl` came in with a melting point of 158 to 159 °C.

`CCCCCN1C(=O)C(=O)c2cc(SCCCc3ccc(C(=O)O)cc3)ccc21` gave a melting point of 145 to 146 °C.

With `O=C(CCCO)NCc1cccc(Nc2n[nH]c3ncnc(Nc4cccc(Cl)c4)c23)c1`, the melting point lay in the range of 182 to 184 °C.

`CC(O)Cn1cc(C2=C(c3cn(CC(C)O)c4ccccc34)C(=O)NC2=O)c2ccccc21` (configuration not stated) yielded a melting point of 133 to 135 °C.

`CCOC(=O)c1nc2c(=O)[nH]c3cc(C(F)(F)F)ccc3n2c1CN1CCN(C)CC1`: the melting point was 255 °C.

Turning to `O=C(O)CN1C(=O)SC(=Cc2ccc(OCc3ccccc3)c(OCc3ccccc3)c2)C1=O`, the melting point was in the range of 167 to 170 °C.

As to `OC1(c2ccc3c(c2)OCO3)CCN(Cc2ccccc2)CC1`, the melting point came to 144 °C.

Compound `CCNC(=O)c1ccccc1Nc1nc(Nc2ccc3c(c2)CCN(CCOC)CC3)ncc1Cl` came in with a melting point of 150 to 184 °C.

`Cc1ccc(C2=N[C@H](c3ccccc3)CO2)cc1C#CCN(O)C(N)=O` came in with a melting point of 169 to 170 °C.

On to `CN1CCc2c(F)c(F)c(N)c3c(=O)c(C(=O)O)cn1c23`, for which the melting point was > 290 °C.

Compound `Cc1cc2c(cc1C1=NNC(=O)CC1)NC(=O)C(C)O2` (configuration not stated) registered a melting point of 252 to 254 °C.

`CCOc1cc(C(CC(=O)CC)N2C(=O)c3cccc(NC(C)=O)c3C2=O)ccc1OC` (configuration not stated) yielded a melting point of 137 to 139 °C.

Take `CCOC(=O)c1c(CCCCn2cncn2)nc2sc3cnccc3c2c1-c1ccc(OC)c(OC)c1`: the melting point is 118 to 119 °C.

`O=C(O)Cc1ccc(OCCNC(=O)C2Cc3ccccc3N2S(=O)(=O)c2ccc(-c3ccc(F)cc3F)cc2)cc1` (configuration not stated) returned a melting point of 92 to 99 °C.

`COc1ccc(COc2ccc(C=C3SC(=S)N(CC(=O)O)C3=O)cc2OCc2ccc(OC)cc2)cc1` returned a melting point of 151 to 155 °C.

For `Cc1c(CN(C)CCc2ccc(NS(C)(=O)=O)cc2)oc2ccc(NS(C)(=O)=O)cc12`, the melting point lay within 142 to 144 °C.

`CN(Cc1cccc2c1C(=O)N(C1CCC(=O)NC1=O)C2=O)C(=O)Nc1cccc(Cl)c1` (configuration not stated) showed a melting point of 193 to 195 °C.

The values are drawn from a melting point compilation (Tetko et al.; mined from patent text by program, amines drawn as free bases though some values may be those of a salt).
